The nature of series [1]: transmittance to the visible ray of chloroform solution (JIS R3106). The series is classed as physicochemical. The following applies: 1 cm quartz cell, lowest transmittance at 750 to 1050 nm set to 5 to 6%.
Experimental: In a quartz cell of 1 cm, this phthalocyanine compound was diluted with chloroform until the lowest value of the transmittance at 750 to 1050 nm reached a level in the range of 5 to 6%.
A short description of series [2]: maximum absorption wavelength and absorptivity coefficient in toluene (spectrophotometer). The series is classed as physicochemical. The following applies: for Absorptivity Coefficient ε: at maximum absorption wavelength. Here is the method: By the use of a spectrophotometer (Shimadzu Seisakusho Ltd., UV-3100), the phthalocyanine compound obtained in this example [VOPc(2,5-Cl2 PhO)8 (2,6-Br2 -4-CH3 PhO)4 {Ph(CH3)CHNH}3 F] was tested for the maximum absorption wavelength and the absorptivity coefficient in toluene.

The nature of series [3]: solubility in toluene and methylethyl ketone at room temperature. The settings on record: 25° C.
Experimental: At a room temperature (25° C.), the phthalocyanine compound was gradually dissolved in each the solutions of toluene and methylethyl ketone (MEK) (each 10 ml in volume). The solutions in the process of dissolving the compound were visually examined to find the finally dissolved amounts of the compound, i.e. the concentrations (solubility) of the phthalocyanine compound as a solute in the saturated solutions.

On to “CuPc(2,5-Cl2 PhO)8 (2,6-(CH3)2 PhO)4 (PhCH2 NH)4 [Example 8]”, for which the “Transmittance to Visible Ray” value in series [1] is 85%. Moreover, in series [2], the “Maximum Absorption Wavelength” value worked out at 810 nm and the “Absorptivity Coefficient ε” value is given as 154000.

As to “VOPc(2,5-Cl2 PhO)8 (2,6-(CH3)2 PhO)4 {Ph(CH3)CHNH}3 F [Example 3]”, the “Transmittance to Visible Ray” value in series [1] amounted to 82%. Moreover, in series [2], the “Maximum Absorption Wavelength” value stood at 834 nm and the “Absorptivity Coefficient ε” value stood at 84000.

In the case of “VOPc(2,5-Cl2 PhO)8 (2,6-(CH3)2 Pho)4 (PhCH2 NH)4 [Example 7]”, in series [1], the “Transmittance to Visible Ray” value turned out to be 83%. Moreover, in series [2], the “Maximum Absorption Wavelength” value is 880 nm and the “Absorptivity Coefficient ε” value was 128200.

On to “VOPc(2,5-Cl2 PhO)8 (2,6-Br2 -4-CH3 PhO)4 {Ph(CH3)CHNH}3 F [Example 1]”, for which the “Transmittance to Visible Ray” value in series [1] is 79%. In series [2], the “Maximum Absorption Wavelength” value came out at 835 nm and the “Absorptivity Coefficient ε” value was determined as 76000.

In the case of “VOPc(2,5-Cl2 PhO)8 (2,6-Br2 -4-CH3 PhO)4 {PhCH2 NH}3 F [Example 2]”, in series [1], the “Transmittance to Visible Ray” value is listed as 81%. For the same substance, in series [2], the “Maximum Absorption Wavelength” value was 840 nm and the “Absorptivity Coefficient ε” value is listed as 68000.

In the case of “VOPc(2,6-Cl2 PhO)8 (2,6-(CH3)2 PhO)4 {Ph(CH3)CHNH}3 F [Example 4]”, the “Transmittance to Visible Ray” value in series [1] amounted to 83%. In series [2], the “Maximum Absorption Wavelength” value was 835 nm and the “Absorptivity Coefficient ε” value was found to be 92000.

On to “VOPc(4-CNPhO)8 (2,6-(CH3)2 PhO)4 {Ph(CH3)CHNH}3 F [Example 6]”, for which the “Solubility MEK” value in series [3] (methylethyl ketone) is “.circleincircle. (a solubility of not less than 5% by weight)”. The “Solubility Toluene” value in series [3] (toluene) is given as “.circleincircle. (a solubility of not less than 5% by weight)”. In addition, the “Transmittance to Visible Ray” value in series [1] was found to be 81%. Also, in series [2], the “Maximum Absorption Wavelength” value worked out at 834 nm and the “Absorptivity Coefficient ε” value was 83000.

For the substance “VOPc(4-CNPhO)8 (2,6-Br2 -4-CH3 PhO)4 {Ph(CH3)CHNH}3 F [Example 5]”, the “Transmittance to Visible Ray” value in series [1] is 80%. In addition, in series [2], the “Maximum Absorption Wavelength” value was 836 nm and the “Absorptivity Coefficient ε” value came to 72000.

Regarding “VOPc(PhNH)8 (PhS)8 [Control 1, reference compound]”, the “Transmittance to Visible Ray” value in series [1] worked out at 50%. Besides, in series [2], the “Maximum Absorption Wavelength” value stood at 950 nm.

Turning to “VOPc(PhS)8 (2,6-(CH3)2 PhO)4 (PhCH2 NH)4 [Example 9]”, the “Transmittance to Visible Ray” value in series [1] worked out at 79%. Also, in series [2], the “Maximum Absorption Wavelength” value is listed as 920 nm and the “Absorptivity Coefficient ε” value turned out to be 130800.

In the case of “octafluoro-octakisanilino oxyvanadium phthalocyanine [Control 2, reference compound]”, in series [1], the “Transmittance to Visible Ray” value amounted to 48%. For the same substance, the “Maximum Absorption Wavelength” value in series [2] was found to be 860 nm.

The record behind these values is patent US6323340A, “Phthalocyanine compound, method for production thereof, and near infrared absorption dye using the compound” (Nippon Shobukai Co., Ltd., priority 1999, dated 2001).
